Experiment [1] has as its system HEL cells (human acute myelocytic leukemia cell lines). Nature of the experiment: cells. Particulars: read-out: Cell-Growth Inhibition Test: HEL Cells IC50 (nM).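 Note: viable cell count by CellTiter-Glo 2.0 luminescence after 5 days of culture at 37 °C, growth expressed relative to DMSO-only wells as 100%.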
In experiment [2] the test system is NCI-H1417 cells (human small-cell lung cancer cell lines). Nature of the experiment: cells. Particulars: NCI-H1417, read-out: Cell-Growth Inhibition Test: NCI-H1417 Cells IC50 (nM).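 Note: growth of NCI-H1417 cells over 10 days at 37 °C, read as viable-cell luminescence by CellTiter-Glo 2.0, expressed as % of DMSO-only control wells.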

Data on 31 compounds can be found in patent US11479563B2, “Biphenyl compound or salt thereof” (TAIHO PHARMACEUTICAL CO., LTD., priority 2017, dated 2022).

Usually IC50 stands for the midpoint of a concentration-inhibition curve.

For the compound `Cn1c(=O)sc2cc(-c3ccc(C(=O)N4[C@@H]5CC[C@H]4C[C@@H](N)C5)cc3-c3ccc(C#N)c(F)c3)ccc21` [Example 133], the half-inhibitory concentration (IC50) is 17.7 nM in experiment [1] and 17.9 nM in experiment [2].

Regarding `CN1CCOc2cc(-c3ccc(C(=O)N4[C@@H]5CC[C@H]4C[C@@H](N)C5)cc3-c3ccc(C#N)c(F)c3)ccc21` [Example 128], in experiment [1], the half-inhibitory concentration (IC50) stood at 5.7 nM.

For the compound `CC(C)(O)Cn1ncc2cc(-c3ccc(C(=O)N4[C@@H]5CC[C@H]4C[C@@H](N)C5)cc3-c3ccc(C#N)c(F)c3)c(F)cc21` [Example 142], the IC50 in experiment [1] came out at 3.86 nM; in experiment [2], 3.79 nM.

Consider `N#Cc1ccc(-c2cc(C(=O)N3[C@@H]4CC[C@H]3C[C@H](N)C4)ccc2-c2ccc3ccccc3c2)cc1F` [Example 104], for which the figures for the IC50 in experiment [1] and in experiment [2] were 28.8 nM and 49.8 nM, respectively.

For the compound `Cc1ccc(-c2ccc(C(=O)N3[C@@H]4CC[C@H]3C[C@@H](N)C4)cc2-c2ccc(C#N)c(F)c2)c(F)c1F` [Example 144], in experiment [1], the concentration for half-maximal inhibition (IC50) is 6.37 nM.

Take `COCCc1ccc(-c2ccc(C(=O)N3[C@@H]4CC[C@H]3C[C@H](N)C4)cc2-c2ccc(C#N)c(F)c2)c(F)c1` [Example 26]: the figures for the half-inhibitory concentration (IC50) in experiment [1] and in experiment [2] were 4.83 nM and 3.15 nM, respectively.

Take `CC(C)(O)Cn1ccc2cc(-c3ccc(C(=O)N4C5CCC4C(N)C5)cc3-c3ccc(C#N)c(F)c3)c(F)cc21` (stereo not drawn) [Example 171]: the IC50 in experiment [1] amounted to 0.09 nM.

In the case of `Cc1ccc(-c2ccc(C(=O)N3[C@@H]4CC[C@H]3C[C@@H](N)C4)cc2-c2ccc(C#N)c(F)c2)c(F)c1` [Example 21], the results for the 50% inhibitory concentration (IC50) in experiment [1] and in experiment [2] were 8.34 nM and 32.6 nM, respectively.

Regarding `Cn1cnc2cc(-c3ccc(C(=O)N4[C@@H]5CC[C@H]4C[C@@H](N)C5)cc3-c3ccc(C#N)c(F)c3)c(F)cc21` [Example 130], the IC50 was 22.2 nM in experiment [1] and 8.25 nM in experiment [2].

With `CC(C)(O)Cn1nnc2cc(-c3ccc(C(=O)N4C5CCC4C(N)C5)cc3-c3ccc(C#N)c(F)c3)c(F)c(C(F)F)c21` [Example 246, 5′-((1S,2S,4R)-rel-2-amino-7-azabicyclo[2.2.1]heptane-7-carbonyl)-2′-(7-(difluoromethyl)-6-fluoro-1-(2-hydroxy-2-methylpropyl)-1H-benzo[d][1,2,3]triazol-5-yl)-3-fluoro-[1,1′-biphenyl]-4-carbonitrile-isomer-X], the results for the IC50 in experiment [1] and in experiment [2] were 0.37 nM and 0.81 nM, respectively.

Consider `CC(C)(O)Cn1ncc2cc(-c3ccc(C(=O)N4C5CCC4C(N)C5)cc3-c3ccc(C#N)c(F)c3)c(F)cc21` (stereo not drawn) [Example 176], for which the concentration for half-maximal inhibition (IC50) in experiment [1] worked out at 0.2 nM.

On to `Cn1nnc2cc(-c3ccc(C(=O)N4[C@@H]5CC[C@H]4C[C@@H](N)C5)cc3-c3ccc(C#N)c(F)c3)c(F)c(F)c21` [Example 145], for which the IC50 in experiment [1] was determined as 1.61 nM; in experiment [2], 3.29 nM.

For the compound `CC(C)(O)Cn1ccc2cc(-c3ccc(C(=O)N4[C@@H]5CC[C@H]4C[C@@H](N)C5)cc3-c3ccc(C#N)c(F)c3)c(F)cc21` [Example 136], the IC50 is 0.9 nM in experiment [1] and 2.39 nM in experiment [2].

As for `Cn1nnc2cc(-c3ccc(C(=O)N4[C@@H]5CC[C@H]4C[C@@H](N)C5)cc3-c3ccc(C#N)c(F)c3)c(F)cc21` [Example 125], the IC50 stood at 7.57 nM in experiment [1] and 8.43 nM in experiment [2].

With `Cn1ncc2cc(-c3ccc(C(=O)N4[C@@H]5CC[C@H]4C[C@@H](N)C5)cc3-c3ccc(C#N)c(F)c3)c(F)cc21` [Example 124], the half-maximal inhibitory concentration (IC50) in experiment [1] is 2.84 nM; in experiment [2], 9.02 nM.

Turning to `Cn1cnc2cc(-c3ccc(C(=O)N4[C@@H]5CC[C@H]4C[C@H](N)C5)cc3-c3ccc(C#N)c(F)c3)c(F)cc21` [Example 108], the IC50 in experiment [1] turned out to be 36.4 nM; in experiment [2] it was 3.99 nM.

With `N#Cc1ccc(-c2cc(C(=O)N3[C@@H]4CC[C@H]3C[C@H](N)C4)ccc2-c2ccc3cccnc3c2)cc1F` [Example 107], the IC50 in experiment [2] came to 18.2 nM.

For the compound `CC(C)(O)Cn1nnc2cc(-c3ccc(C(=O)N4CC[C@H](N)C4)cc3-c3ccc(C#N)c(F)c3)c(F)c(F)c21` [Example 162], the results for the IC50 in experiment [1] and in experiment [2] were 17.7 nM and 4.69 nM, respectively.

As for `CC(C)(O)Cn1cc(C(=O)O)c2cc(-c3ccc(C(=O)N4C5CCC4C(N)C5)cc3-c3ccc(C#N)c(F)c3)c(F)cc21` [Example 222, 5-(5-((1S,2S,4R)-rel-2-amino-7-azabicyclo[2.2.1]heptane-7-carbonyl)-4′-cyano-3′-fluoro-[1,1′-biphenyl]-2-yl)-6-fluoro-1-(2-hydroxy-2-methylpropyl)-1H-indole-3-carboxylic acid-isomer-X], the results for the IC50 in experiment [1] and in experiment [2] were 38 nM and 41.8 nM, respectively.

`CC(C)(O)Cn1nnc2cc(-c3ccc(C(=O)N4C5CCC4C(N)C5)cc3-c3ccc(C#N)c(F)c3)c(F)c(C3CC3)c21` [Example 279, 5′-((1R,2R,4S)-rel-2-amino-7-azabicyclo[2.2.1]heptane-7-carbonyl)-2′-(7-cyclopropyl-6-fluoro-1-(2-hydroxy-2-methylpropyl)-1H-benzo[d][1,2,3]triazol-5-yl)-3-fluoro-[1,1′-biphenyl]-4-carbonitrile-isomer-X]: the values for the IC50 in experiment [1] and in experiment [2] were 1.59 nM and 0.9 nM, respectively.

Consider `Cn1cnc2cc(-c3ccc(C(=O)N4[C@@H]5CC[C@H]4C[C@@H](N)C5)cc3-c3ccc(C#N)c(F)c3)c(F)c(F)c21` [Example 126], for which the IC50 was 5.39 nM in experiment [1] and 5.02 nM in experiment [2].

As for `CC(C)(O)Cc1ccc(-c2ccc(C(=O)N3[C@@H]4CC[C@H]3C[C@H](N)C4)cc2-c2ccc(C#N)c(F)c2)c(F)c1` [Example 28], the half-inhibitory concentration (IC50) in experiment [2] amounted to 4.4 nM.

`Cc1ccc(-c2ccc(C(=O)N3[C@@H]4CC[C@H]3C[C@H](N)C4)cc2-c2ccc(C#N)cc2)cc1` [Example 7]: the IC50 worked out at 14.8 nM in experiment [1] and 28 nM in experiment [2].

Consider `Cn1nnc2cc(-c3ccc(C(=O)N4C5CCC4C(N)C5)cc3-c3ccc(C#N)c(F)c3)c(F)c(F)c21` (stereo not drawn) [Example 175], for which the IC50 in experiment [1] was 0.2 nM.

Regarding `CN1CCOc2cc(-c3ccc(C(=O)N4[C@@H]5CC[C@H]4C[C@H](N)C5)cc3-c3ccc(C#N)c(F)c3)ccc21` [Example 106], the 50% inhibitory concentration (IC50) in experiment [1] came to 5.74 nM; in experiment [2] it was 6.15 nM.

`CC(C)N[C@@H]1C[C@H]2CC[C@@H](C1)N2C(=O)c1ccc(-c2ccc(CC(C)(C)O)cc2F)c(-c2ccc(C#N)c(F)c2)c1` [Example 113]: the results for the IC50 in experiment [1] and in experiment [2] were 9 nM and 13.7 nM, respectively.

With `Cn1ncc2c(F)c(-c3ccc(C(=O)N4[C@@H]5CC[C@H]4C[C@H](N)C5)cc3-c3ccc(C#N)c(F)c3)ccc21` [Example 110], the IC50 in experiment [1] was 7.41 nM; in experiment [2] it was 3.54 nM.

On to `N#Cc1ccc(-c2cc(C(=O)N3[C@@H]4CC[C@H]3C[C@H](N)C4)ccc2-c2ccc3cccnc3c2F)cc1F` [Example 105], for which the IC50 in experiment [2] was determined as 11.7 nM.

As to `CC(C)(C)n1nnc2cc(-c3ccc(C(=O)N4[C@@H]5CC[C@H]4C[C@@H](N)C5)cc3-c3ccc(C#N)c(F)c3)c(F)cc21` [Example 139], the IC50 in experiment [1] was 16.9 nM.

With `Cn1cc(C(=O)O)c2cc(-c3ccc(C(=O)N4C5CCC4C(N)C5)cc3-c3ccc(C#N)c(F)c3)c(F)cc21` [Example 224, 5-(5-((1S,2S,4R)-rel-2-amino-7-azabicyclo[2.2.1]heptane-7-carbonyl)-4′-cyano-3′-fluoro-[1,1′-biphenyl]-2-yl)-6-fluoro-1-methyl-1H-indole-3-carboxylic acid-isomer-X], the 50% inhibitory concentration (IC50) in experiment [1] is 46.2 nM.

Turning to `COCCc1ccc(-c2ccc(C(=O)N3[C@@H]4CC[C@H]3C[C@H](NC(C)C)C4)cc2-c2ccc(C#N)c(F)c2)c(F)c1` [Example 112], in experiment [2], the half-maximal inhibitory concentration (IC50) turned out to be 20.5 nM.
